The source of these data is US9808477B2 (Macau University of Science and Technology, priority 2015, dated 2017).

Broadly, the IC50 is the midpoint of a concentration-inhibition curve. One may read the viability as a per cent measure of how many cells are alive, often set against a control. Lower therefore signals a greater loss of cells.

Molecules are shown by their SMILES. Where only a bound is given, the exact number is not on record here.

The test system of data set [1] is A2780/T cells. The experiment in a line: Cell cycle analysis (PI, flow cytometry). It counts as cell-based, human. On the procedure:
A2780/T cells were harvested 24 hours, 48 hours, or 72 hours after treatment and washed twice with ice-cold PBS. The cells were fixed and permeabilized with 70% ice-cold ethanol overnight at 4° C. or 2 h at −20° C. After one additional wash in PBS, cells were stained with a staining solution containing propidium iodide (PI) ([…]) and RNase A (250 μg/ml) for 30 min at room temperature. They were then pelleted, washed and suspended in PBS to a final concentration of 1×10^6/ml and analyzed by flow cytometry BD FACS Aria (BD Biosciences, San Jose, Calif.).
In general terms: Flow cytometry measures light scatter and fluorescence of single cells or particles in a stream.

The subject of data set [2] is prostate cancer cell lines. As to conditions: several prostate cancer cell lines; read-out: IC50, growth inhibition; cited from earlier work.
In data set [3] the test system is P-gp, p53, AKT/ERK, Nrf2 in A2780/T cells. Description: Western blot analysis. The class given is cell-based, human. On the procedure: The total cellular samples were harvested and rinsed twice with ice-cold PBS buffer. Cell extracts were lysed in RIPA buffer (50 mM Tris (pH 7.4), 150 mM NaCl, 1% Triton X-100, 1% sodium deoxycholate, 0.1% SDS, sodium orthovanadate, sodium fluoride and EDTA) containing protease inhibitor cocktails (Roche Life Science, USA). Protein concentration was determined using the BCA protein assay kit. Equal amounts of cell lysates were resolved by SDS-PAGE and subsequently electrophoretically transferred onto PVDF membranes (Millipore, Darmstadt, Germany). After blocking in tris-buffered saline containing 0.1% of Tween20 (TBST) with 5% (w/v) skim milk (Nestle Carnation, New Zealand) for 2 h at room temperature, the membranes were incubated with primary and secondary antibodies and subsequently visualized with an enhanced chemiluminescence detection kit (Thermo Scientific™ SuperSignal™ West Pico Chemiluminescent Substrate, USA). β-Actin was used as the loading control for the experimental data analysis.

Data set [4] can be described thus: in vitro. The class given is cell-based. As to conditions: human. How it is done: Sulphorhodamine B (SRB) assays were used for cell density determination, based on sensitive measure of total cellular protein, which perform similarly compared with other proliferation assays such as MTT assay. Briefly, cells were seeded into flat bottomed 96-well plates at an initial density of 7.5×10^3 per well before treatment. […] After removing the medium, cells were fixed in 10% trichloroacetic acid for 1 h at 4° C. and then washed with water five times. 0.4% SRB dissolved in 1% v/v acetic acid was added and incubated […] for staining. The cells were quickly washed with 1% acetic acid and left to dry overnight. The protein bound SRB was solubilized by adding 200 μl 10 mM Tris buffer per well and was measured at wavelengths 490 nm using a plate reader (Spectra MAX 250; Molecular Devices, Sunnyvale, Calif.). The optical density of SRB in each well is directly proportional to the cell number.

The conditions of data set [5]: healthy subjects, single dose of Sytrinol (1053 mg total polymethoxylated flavones); cited from earlier work.
[6] abbreviates: nobiletin 9 μM in combination with 0.94 μM PTX.

Consider `COc1ccc(-c2cc(=O)c3c(OC)c(OC)c(OC)c(OC)c3o2)cc1OC` [nobiletin], for which the “effect on the cell cycle” value in data set [1] (nobiletin 9 μM alone) is reported as “no effect”. Further, in data set [1] (setting [6]), the G1 phase cells amounted to 9.6% and the G2 phase cells was 75.77%. Moreover, in data set [2], the IC50 is approximately 100 µM. The “phosphorylated AKT/ERK level” value in data set [3] (50 μM nobiletin) is reported as “significant decrease”. In addition, in data set [3] (PTX and nobiletin, 48 h), the “phosphorylated AKT and ERK” value is on record as “significant inhibitory effect”. Also, the p53 level result in data set [3] (PTX in combination with nobiletin) is “accumulation of p53”. In addition, the “expression of total and phosphorylated AKT and ERK” value in data set [3] (nobiletin alone at reversal concentrations) was “no effect”. Also, the “protein level of ABCB1” value in data set [3] (nobiletin at concentrations used in reversal assays, 48 h) is on record as “did not significantly alter”. In addition, the “protein level of Nrf2” value in data set [3] (nobiletin in combination with 0.94 μM PTX, dose-dependent) is given as “reduced”. For the same compound, the viability at 9 µM in data set [4] is more than 90%. The peak plasma level in data set [5] is approximately 2.5 µM.
